According to US8735425B2, “Tetrahydroisoquinoline derivative” (Daiichi Sankyo Company, Limited, priority 2008, dated 2014):

Key:
[1] = tested on: Male C57BL/6N mice; experiment: Triglyceride absorption suppression after fat loading (in vivo DGAT1 inhibitory effect); details: Mus musculus, po; dose of 10 mg/kg or lower, orally administered, mice fasted overnight, plasma triglyceride after fat loading; read-out: Triglyceride absorption suppressive activity
Method in brief: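 Overnight-fasted male C57BL/6N mice dosed orally with compound (1 to 10 mg/kg in 0.5% methylcellulose), then given Pluronic-F127 1 g/kg i.p. and an oral 20% Intralipid load. Plasma triglyceride measured 1 to 4 h later. Absorption suppression (%) calculated against water-loaded and fat-loaded vehicle groups.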

[2] = biological target: T1, DGAT1 enzyme (Homo sapiens, UniProt O75907); experiment: DGAT1 inhibitory activity test; type: biochemical; details: test compound concentration of 0.05 μg/ml; read-out: Inhibitory Rate
T1 construct: made in house
T1 sequence (O75907 1-488): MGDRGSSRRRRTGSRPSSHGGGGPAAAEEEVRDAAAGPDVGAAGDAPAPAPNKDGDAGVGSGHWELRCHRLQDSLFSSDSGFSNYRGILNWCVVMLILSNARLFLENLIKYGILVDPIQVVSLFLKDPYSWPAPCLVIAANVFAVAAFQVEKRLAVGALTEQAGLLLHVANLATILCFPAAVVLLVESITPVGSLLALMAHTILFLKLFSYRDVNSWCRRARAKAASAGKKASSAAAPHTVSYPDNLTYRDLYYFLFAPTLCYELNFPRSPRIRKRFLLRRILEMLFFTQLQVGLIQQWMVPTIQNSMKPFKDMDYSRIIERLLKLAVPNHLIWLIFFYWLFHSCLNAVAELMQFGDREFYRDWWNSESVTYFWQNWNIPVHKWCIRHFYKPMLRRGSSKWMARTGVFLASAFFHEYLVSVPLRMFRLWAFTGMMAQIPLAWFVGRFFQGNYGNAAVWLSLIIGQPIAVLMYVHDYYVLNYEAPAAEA
Method in brief: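 Reaction at 23° C for 30 min in 175 mM Tris-HCl pH 8.0, 8 mM MgCl2, 1 mg/ml BSA, 0.5% Triton X-100 with 0.3 mM 1,2-dioleoyl-sn-glycerol and 10 μM [14C]-oleoyl-CoA. Triglyceride extracted into heptane, separated by TLC, radioactivity quantified; % inhibition versus vehicle control, 0-min background subtracted.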

inhibition at 0.05 µg/mL [2] [%] | SMILES | inhibition in vivo at up to 10 mg/kg [1] [%]
≥ 50 | CC(C)c1ccc(NC(=O)Nc2ccc3c(c2)CCN(C(=O)O[C@H]2CC[C@H](CC(=O)O)CC2)C3)cc1 [Example 72, trans-6-[3-(4-isopropyl-phenyl)-ureido]-3,4-dihydro-1H-isoquinoline-2-carboxylic acid 4-carboxymethyl-cyclohexyl ester] | ≥ 60
≥ 50 | CC(C)(C)c1ccc(NC(=O)Nc2ccc3c(c2)CCN(C(=O)O[C@H]2CC[C@H](CC(=O)O)CC2)C3)cc1 [Example 73, trans-6-[3-(4-tert-butyl-phenyl)-ureido]-3,4-dihydro-1H-isoquinoline-2-carboxylic acid 4-carboxymethyl-cyclohexyl ester] | ≥ 60
≥ 50 | N#Cc1cccc(NC(=O)Nc2ccc3c(c2)CCN(C(=O)O[C@H]2CC[C@H](CC(=O)O)CC2)C3)c1 [Example 74, trans-6-[3-(3-cyano-phenyl)-ureido]-3,4-dihydro-1H-isoquinoline-2-carboxylic acid 4-carboxymethyl-cyclohexyl ester] | ≥ 60
≥ 50 | CN(C)c1cccc(NC(=O)Nc2ccc3c(c2)CCN(C(=O)O[C@H]2CC[C@H](CC(=O)O)CC2)C3)c1 [Example 75, trans-6-[3-(3-dimethylamino-phenyl)-ureido]-3,4-dihydro-1H-isoquinoline-2-carboxylic acid 4-carboxymethyl-cyclohexyl ester] | ≥ 60
≥ 50 | CC(C)(C)c1cccc(NC(=O)Nc2ccc3c(c2)CCN(C(=O)O[C@H]2CC[C@H](CC(=O)O)CC2)C3)c1 [Example 76, trans-6-[3-(3-tert-butyl-phenyl)-ureido]-3,4-dihydro-1H-isoquinoline-2-carboxylic acid 4-carboxymethyl-cyclohexyl ester] | ≥ 60
≥ 50 | Cc1ccccc1NC(=O)Nc1ccc2c(c1)CCN(C(=O)O[C@H]1CC[C@H](CC(=O)O)CC1)C2 [Example 77, trans-6-(3-o-tolyl-ureido)-3,4-dihydro-1H-isoquinoline-2-carboxylic acid 4-carboxymethyl-cyclohexyl ester] | ≥ 60
≥ 50 | Cc1ccc(NC(=O)Nc2ccc3c(c2)CCN(C(=O)O[C@H]2CC[C@H](CC(=O)O)CC2)C3)cc1C [Example 78, trans-6-[3-(3,4-dimethyl-phenyl)-ureido]-3,4-dihydro-1H-isoquinoline-2-carboxylic acid 4-carboxymethyl-cyclohexyl ester] | ≥ 60
≥ 50 | CCOc1ccc(NC(=O)Nc2ccc3c(c2)CCN(C(=O)O[C@H]2CC[C@H](CC(=O)O)CC2)C3)cc1 [Example 80, trans-6-[3-(4-ethoxy-phenyl)-ureido]-3,4-dihydro-1H-isoquinoline-2-carboxylic acid 4-carboxymethyl-cyclohexyl ester] | ≥ 60
≥ 50 | CC(C)(C)NC(=O)Nc1ccc2c(c1)CCN(C(=O)O[C@H]1CC[C@H](CC(=O)O)CC1)C2 [Example 82, trans-6-(3-tert-butyl-ureido)-3,4-dihydro-1H-isoquinoline-2-carboxylic acid 4-carboxymethyl-cyclohexyl ester] | ≥ 60
≥ 50 | O=C(O)C[C@H]1CC[C@H](OC(=O)N2CCc3cc(NC(=O)NC4CCCC4)ccc3C2)CC1 [Example 83, trans-6-(3-cyclopentyl-ureido)-3,4-dihydro-1H-isoquinoline-2-carboxylic acid 4-carboxymethyl-cyclohexyl ester] | ≥ 60
≥ 50 | O=C(O)C[C@H]1CC[C@H](OC(=O)N2CCc3cc(NC(=O)NC4CCCCC4)ccc3C2)CC1 [Example 84, trans-6-(3-cyclohexyl-ureido)-3,4-dihydro-1H-isoquinoline-2-carboxylic acid 4-carboxymethyl-cyclohexyl ester] | ≥ 60
≥ 50 | O=C(O)C[C@H]1CC[C@H](OC(=O)N2CCc3cc(NC(=O)NCC4CCCCC4)ccc3C2)CC1 [Example 85, trans-6-(3-cyclohexylmethyl-ureido)-3,4-dihydro-1H-isoquinoline-2-carboxylic acid 4-carboxymethyl-cyclohexyl ester] | ≥ 60
≥ 50 | O=C(O)C[C@H]1CC[C@H](OC(=O)N2CCc3cc(NC(=O)NC45CC6CC(CC(C6)C4)C5)ccc3C2)CC1 [Example 86, trans-6-(3-adamantan-1-yl-ureido)-3,4-dihydro-1H-isoquinoline-2-carboxylic acid 4-carboxymethyl-cyclohexyl ester] | ≥ 60
≥ 50 | Cc1cncc(NC(=O)Nc2ccc3c(c2)CCN(C(=O)O[C@H]2CC[C@H](CC(=O)O)CC2)C3)c1 [Example 90, trans-6-[3-(5-methyl-pyridin-3-yl)-ureido]-3,4-dihydro-1H-isoquinoline-2-carboxylic acid 4-carboxymethyl-cyclohexyl ester] | ≥ 60
≥ 50 | O=C(O)C[C@H]1CC[C@H](OC(=O)N2CCc3cc(NC(=O)Nc4ccc(Cl)cn4)ccc3C2)CC1 [Example 91, trans-6-[3-(5-chloro-pyridin-2-yl)-ureido]-3,4-dihydro-1H-isoquinoline-2-carboxylic acid 4-carboxymethyl-cyclohexyl ester] | ≥ 60
≥ 50 | O=C(O)C[C@H]1CC[C@H](OC(=O)N2CCc3cc(NC(=O)Nc4ccc(Cl)nc4)ccc3C2)CC1 [Example 92, trans-6-[3-(6-chloro-pyridin-3-yl)-ureido]-3,4-dihydro-1H-isoquinoline-2-carboxylic acid 4-carboxymethyl-cyclohexyl ester] | ≥ 60
≥ 50 | Cc1cnc(NC(=O)Nc2ccc3c(c2)CCN(C(=O)O[C@H]2CC[C@H](CC(=O)O)CC2)C3)s1 [Example 95, trans-6-[3-(5-methyl-thiazol-2-yl)-ureido]-3,4-dihydro-1H-isoquinoline-2-carboxylic acid 4-carboxymethyl-cyclohexyl ester] | ≥ 60
≥ 50 | Cc1cc(NC(=O)Nc2ccc3c(c2)CCN(C(=O)O[C@H]2CC[C@H](CC(=O)O)CC2)C3)no1 [Example 97, trans-6-[3-(5-methyl-isoxazol-3-yl)-ureido]-3,4-dihydro-1H-isoquinoline-2-carboxylic acid 4-carboxymethyl-cyclohexyl ester] | ≥ 60
≥ 50 | C[C@@H]1C[C@H](CC(=O)O)CC[C@H]1OC(=O)N1CCc2cc(NC(=O)Nc3cccc(OC(F)(F)F)c3)ccc2C1 [Example 102, 6-[3-(3-trifluoromethoxy-phenyl)-ureido]-3,4-dihydro-1H-isoquinoline-2-carboxylic acidt-4-carboxymethyl-t-2-methyl-r-1-cyclohexyl ester] | ≥ 60
